Laboratory results taken from article PMC11073428, “The activity of pyrazolo[4,3-e][1,2,4]triazine and pyrazolo[4,3-e]tetrazolo[1,5-b][1,2,4]triazine sulphonamide derivatives in monolayer and spheroid breast cancer cell cultures” (Journal of Enzyme Inhibition and Medicinal Chemistry, 2024).

Tests used:
ROS in MCF-7 cells = assay: Total ROS activity, flow cytometry, MCF-7; format: cell-based, human; conditions: for cells that generated ROS: 24 h
Method: In brief, cells were washed two times with cold PBS solution and incubated in a solution of ROS Green dye in Assay Buffer and incubated for 1 h in optimal cell growth parameters, protected from light. After incubation, cells were washed with assay buffer. Subsequently, fluorescence emission intensities at 490 nm excitation and 520 nm emission were recorded in 500 μL assay buffer using flow cytometer BD FACSCanto II flow cytometer and FACSDiva software (BD Biosciences Systems, San Jose, CA).

caspase 9 in MCF-7 cells = assay: Activity of caspase 9, MCF-7; format: cell-based, human; conditions: MCF-7, 0.5 µM, 24 h
Method: (§1) MCF-7 and MDA-MB-231 cells were plated in six-well plates at density 1 × 10^6 and cultured in DMEM for 24 h. […] Then to identify the involvement of caspase family in inducing apoptosis, cells were pre-treated with Z-VAD-FMK (100 µM) 2 h before adding compounds[28]. The activation of caspases 9, 10, and 3/7 was detected as described before.

[1] = tested on: MCF-7 breast cancer cells; assay: MTT viability assay, MCF-7
Method: Following 24-h incubation with tested compounds, the medium was discarded from the cell cultures. Then, into each well with cells was added 1 mL of PBS and 50 µL of MTT solution (5 mg per mL). Cells were incubated at 37 °C and 5% CO2 in humidified atmosphere for a defined time appropriate for each cell line. After incubation, the solution above the cells was removed and obtained purple formazan crystals were dissolved in 1 mL DMSO. The absorbance was read at OD = 570 nm on Evolution 201 Spectrophotometer (Thermo Scientific, Waltham, MA).

Bax in MDA-MB-231 cells = assay: Anti-Bax antibody flow cytometry, MDA-MB-231; format: cell-based, human; conditions: 24 h
Method: (§2) To evaluate the molecular mechanism of induction of apoptosis of tested compounds, the level of p53, NF-κB, mTOR, Bax, and beclin-1 was measured using appropriate antibody according to the manufacturer’s instruction. In brief, tryspinised cells were centrifuged, then supernatant was discarded, and cells were suspended in 4% FA (formaldehyde). Prepared samples were incubated 15 min at RT. Following incubation, the 2.5 mL PBS was added to each sample and centrifuged. Then, supernatant was discarded, and cells were resuspended in 90% ice-cold methanol to perform permeabilisation and left for 1 h in ice. To remove methanol, cells were rinsed with excess PBS by centrifugation. Following centrifugation, the supernatant was discarded. Then, cells were resuspended in 100 µL of appropriate diluted (1:100 in PBS) antibody conjugate (p53 (7F5) Rabbit mAb – Alexa Fluor 488 Conjugate #5429 Cell Signalling Technology, Danvers, MA; NF-κB p65 (D14E12) XP Rabbit mAb – Alexa Fluor 647 Conjugate #8801 Cell Signalling Technology, Danvers, MA; mTOR (7C10) Rabbit mAB – Alexa Fluor 647 #5048 Cell Signalling Technology, Danvers, MA; FITC Anti-Bax antibody (T22-A) #ab139543, Abcam, Cambridge, UK) and incubated 1 h in the dark at RT. Afterwards, cells were washed by centrifugation in 2 mL of incubation buffer. Finally, supernatant was removed and 300 µL PBS was added to each sample and pipetted. The analysis was performed by flow cytometry (BD FACSCanto II, Becton Dickinson Biosciences Systems, San Jose, CA) using FACSDiva software ver. 6.1.3.

mTOR in MDA-MB-231 cells = assay: Anti-mTOR antibody flow cytometry, MDA-MB-231; format: cell-based, human; conditions: MDA-MB-231, 0.25 µM and 0.5 µM, 24 h
Method: as §2, with “The analysis was performed by flow cytometry (BD FACSCanto II, Becton Dickinson Biosciences Systems, San Jose, CA) using FACSDiva software ver. 6.1.3.” left out

[2] = tested on: MDA-MB-231 breast cancer cells; assay: Apoptosis, annexin V-FITC/PI flow cytometry, MDA-MB-231; format: cell-based, human; conditions: 24 h
Method: The analysis was performed using flow cytometry Apoptosis Detection Kit II (BD Biosciences, San Diego, CA) as described previously.

[3] = tested on: caspase 10 in MDA-MB-231 cells; assay: Activity of caspase 10, MDA-MB-231; format: cell-based, human; conditions: 24 h
Method: as §1

[4] = tested on: beclin-1 in MDA-MB-231 cells; assay: Anti-beclin-1 antibody flow cytometry, MDA-MB-231; format: cell-based, human; conditions: MDA-MB-231, 0.5 µM, 24 h
Method: (§3) The fixation and permeabilisation were performed as described above. Cells were resuspended in 100 µL of diluted primary antibody (1:100 in PBS, anti-beclin 1 antibody (2A4) #ab114071, Abcam, Cambridge, UK) and incubated 30 min in the dark at RT. The cells were washed three times by centrifugation in PBS. Then to each probe, 100 µL of diluted fluorochrome-labelled secondary antibody (1:100 in PBS; goat anti-mouse IgG H&L – Alexa Fluor 488 #ab150113, Abcam, Cambridge, UK) was added and incubated 30 min in dark at RT. Then, cells were rinsed with 2.5 mL PBS. In the last step, supernatant was discarded and cells were resuspended in 300 µL PBS and pipetted. The analysis was carried out by flow cytometry.

beclin-1 in MCF-7 cells = assay: Anti-beclin-1 antibody flow cytometry, MCF-7; format: cell-based, human; conditions: MCF-7, 0.5 µM, 24 h
Method: as §3

in vitro = conditions: human
p53 in MDA-MB-231 cells = assay: Anti-p53 antibody flow cytometry, MDA-MB-231; format: cell-based, human; conditions: MDA-MB-231, 0.25 µM and 0.5 µM, 24 h
Method: as §2, with “The analysis was performed by flow cytometry (BD FACSCanto II, Becton Dickinson Biosciences Systems, San Jose, CA) using FACSDiva software ver. 6.1.3.” left out

p53 in MCF-7 cells = assay: Anti-p53 antibody flow cytometry, MCF-7; format: cell-based, human; conditions: MCF-7, 0.25 µM and 0.5 µM, 24 h
Method: as §2, with “The analysis was performed by flow cytometry (BD FACSCanto II, Becton Dickinson Biosciences Systems, San Jose, CA) using FACSDiva software ver. 6.1.3.” left out

NF-κB in MCF-7 cells = assay: Anti-NF-κB antibody flow cytometry, MCF-7; format: cell-based, human; conditions: 24 h, control 97.2 ± 0.6%
Method: as §2, with “The analysis was performed by flow cytometry (BD FACSCanto II, Becton Dickinson Biosciences Systems, San Jose, CA) using FACSDiva software ver. 6.1.3.” left out

[5] = tested on: MCF-7 breast cancer cells; assay: Autophagy Assay, Red, flow cytometry, MCF-7; format: cell-based, human
Method: The effect of novel compound 3b at 0.25 µM and 0.5 µM concentration on the induction of autophagy in MCF-7 and MDA-MB-231 pre-treated 1 h with or not autophagy inhibitor 3-MA for 1 h (3-methyladenine, Sigma-Aldrich, St. Louis, MO) at 1 mM concentration[29] was assessed by ICT’s Autophagy Assay, Red using a flow cytometer. The test was performed as previously. Briefly, cells were washed with PBS and suspended in 490 µL of PBS. To each probe, 10 µL of diluted Autophagy Probe, Red solution was added. Prepared samples were incubated at 37 °C for 60 min. Following incubation, cells were suspended in diluted cellular assay buffer and centrifuged. Then, supernatant was removed, and cells were resuspended in diluted cellular assay buffer and centrifuged again. This step was repeated three times. Finally, cell pellet was resuspended in 0.5 mL of diluted cellular assay buffer. The analysis was performed with a flow cytometer (excitation/emission 590 nm/620 nm).

[6] = tested on: caspase 9 in MDA-MB-231 cells; assay: Activity of caspase 9, MDA-MB-231; format: cell-based, human; conditions: MDA-MB-231, 0.5 µM, 24 h
Method: as §1

**Q.** For `Cc1nn(-c2ccc(S(=O)(=O)N[C@@H](CO)Cc3ccccc3)cc2)c2nn3nnnc3nc12` [Compound 3b, (R)-N-(1-hydroxy-3-phenylpropan-2-yl)-4-(7-methyl-5H-pyrazolo[4,3-e]tetrazolo[1,5-b][1,2,4]triazin-6-yl)benzenesulfonamide], which “cells that generated ROS” value (ROS in MCF-7 cells; MCF-7, 0.25 µM) is on record?
**A.** 19.8 ± 2.2%

**Q.** And the “increase of ROS level compared to control” value (ROS in MCF-7 cells; MCF-7, 0.5 µM)?
**A.** 12 times

**Q.** And the “cells that generated ROS” value (ROS in MCF-7 cells; MCF-7, 0.5 µM)?
**A.** 27.5 ± 1.3%

**Q.** And the “percentage of active form of caspase 9” value (caspase 9 in MCF-7 cells)?
**A.** 72.1 ± 2.3%

**Q.** And the IC50 ([1]; Homo sapiens, MCF7, 24 h, read-out: Cytotoxicity IC50 MCF-7)?
**A.** 0.25 ± 0.07 µM

**Q.** What about the “times stronger than the corresponding sulphonyl derivative (2a or 2b), MCF-7” value ([1]; ratio of cytotoxicity, 3a vs 2a, 3b vs 2b) of the same molecule?
**A.** 22 times

**Q.** What about the “cells with active Bax” value (Bax in MDA-MB-231 cells; MDA-MB-231, 0.25 µM) of the same molecule?
**A.** 6.3 ± 0.4%

**Q.** And the “cells with active Bax” value (Bax in MDA-MB-231 cells; MDA-MB-231, higher concentration (0.5 µM))?
**A.** 16.9 ± 3.7%

**Q.** And the melting point?
**A.** 170 to 172 °C

**Q.** And the “effect on cells with active mTOR (in words)” value (mTOR in MDA-MB-231 cells)?
**A.** decrease in the number of cells with active mTOR

**Q.** And the apoptotic cells ([2]; MDA-MB-231, 0.25 µM)?
**A.** 11.8 ± 1.3%

**Q.** What about the “early and late apoptotic cells” value ([2]; MDA-MB-231, 0.5 µM) of the same molecule?
**A.** 29.5 ± 0.9%

**Q.** And the “cells with active caspase 10” value ([3]; MDA-MB-231, 0.25 µM)?
**A.** 21.2 ± 1.4%

**Q.** And the “cells with active caspase 10” value ([3]; MDA-MB-231, 0.5 µM)?
**A.** 50.8 ± 3.8%

**Q.** What about the “cells with active beclin-1” value [4] of the same molecule?
**A.** 8.1 ± 0.1%

**Q.** What about the “cells with active beclin-1” value (beclin-1 in MCF-7 cells) of the same molecule?
**A.** 13.9 ± 2.6%

**Q.** And the IC50 at 24 h (in vitro)?
**A.** 2.3 ± 0.04 µM

**Q.** What about the “effect on p53 (in words)” value (p53 in MDA-MB-231 cells) of the same molecule?
**A.** activates p53

**Q.** And the “effect on p53 (in words)” value (p53 in MCF-7 cells)?
**A.** activates p53

**Q.** And the “cells with active NF-κB” value (NF-κB in MCF-7 cells; MCF-7, 0.25 µM)?
**A.** 25.5 ± 4.5%

**Q.** What about the “cells with active NF-κB” value (NF-κB in MCF-7 cells; MCF-7, 0.5 µM) of the same molecule?
**A.** 19.8 ± 4.4%

**Q.** And the autophagic cells ([5]; MCF-7, 0.5 µM, 24 h)?
**A.** 30 ± 2.1%

**Q.** What about the “autophagic cells with 3-MA relative to 3b alone (in words)” value ([5]; MCF-7, 3b 0.5 µM + 3MA vs 3b 0.5 µM) of the same molecule?
**A.** one and a half times less autophagic cells

**Q.** What about the “cells with active caspase 9” value [6] of the same molecule?
**A.** 55.9 ± 1.2%
